Where no end group is shown, it is not given here.
Tests used:
[1] = test system: GAD 546-554 specific CD8 T cell clone; assay: Cytokine release of GAD 546-554 specific CD8 T cell clone incubated with APLs and antigen presenting cells; type: cell-based, mouse; conditions: CD8 T cell clone incubated with APL and antigen presenting cells
Text: Immune cells protect the human body from foreign antigens. However, in autoimmune diseases like type 1 diabetes (T1D), autoreactive T cells recognize pancreatic beta cell related proteins as antigens, leading to beta cell destruction. An altered peptide ligand (APL) strategy can be used to target autoreactive T cells in T1D. GAD 546-554 (SEQ ID NO: 7) is reported as a dominant epitope recognized by autoreactive T cells, in the non-obese diabetic mouse model, that can cause destruction of beta cells. Nine APLs which have single alanine substitution, at different positions of GAD 546-554 (SEQ ID NO: 7), were screened. When GAD 546-554 (SEQ ID NO: 7) specific CD8 T cell clone was incubated with different APLs and antigen presenting cells, APL9 (SEQ ID NO: 8) inhibited both IFN-γ and TNF-α release. In order to improve antigen presentation and endosomal escape of APL9 (SEQ ID NO: 8), a bioconjugate platform of a liposome containing a Formula I bioconjugate of APL9 (SEQ ID NO: 8) and the toll like receptor ligand, Pam3CysSK4 (“CysSK4” disclosed as SEQ ID NO: 16), as well as antibody against macrophage and dendritic cell protein, F4/80, was developed. This immunotherapy strategy is beneficial to prevent T1D by rendering autoreactive immune cells more tolerant of beta cells. […]

Splenocytes = assay: T stimulation assay with IFNγ secreting ELISPOT kit on splenocytes of treated NOD mice; type: cell-based, NOD female mice
Description: (FIG. 30.) Further, this system was studied in non-diabetic non-obese diabetic model (NOD). […] These mice were sacrificed and their spleens were collected for performing T stimulation assay using IFNγ secreting ELISPOT kit. […] After 36 hours of incubation, IFNγ secreting cells were looked for.

[2] = test system: GAD 546-554 specific CD8 T cell clone (CTL.546L); assay: Interferon gamma release of CTL.546L co-cultured with bioconjugate-treated M12C3.B7 APCs; type: cell-based, mouse; conditions: compared with free peptide GAD 546-544; M12C3.B7 APCs treated 3 hours, co-culture 24 hours (FIG. 29)
Description: M12C3B7, B cell line, was used as an APC. […] Later, these cells were co-cultured with CTL.546.L (2×10^5 cells/well) for 24 hours. After 24 hours of incubation, supernatants were collected for studying the interferon gamma release.
Co-culture was incubated for 24 hours at 37° C. Supernatants were used to study the IFNγ release.

How did the IFN-γ release [1] turn out when SYQPLGDAV [APL9] was run?
The IFN-γ release was “inhibited”.

And the TNF-α release [1]?
The TNF-α release was “inhibited”.

What does the source list for “bioconjugate GAD 541-554: bioconjugate of GAD 541-554 (GTTMVSYQPLGDKV, SEQ ID NO: 6) (also: bioconjugate moiety, kind and site not given here)”?
number of IFNγ secreting cells (Splenocytes; splenocytes from vehicle treated NOD mice, treated in vitro for 36 hours (FIG. 31)): increase in number of IFNγ secreting cells; number of IFNγ secreting cells (Splenocytes; splenocytes of NOD mice primed for three consecutive weeks, then treated with either bioconjugate or bioconjugate with F4/80 for 36 hours): increase in number of IFNγ secreting cells

How did the IFNγ release [2] turn out when “bioconjugate 546-554: Formula I bioconjugate of GAD 546-554 (SYQPLGDKV, SEQ ID NO: 7) with Pam3CysSK4 (also: Formula I bioconjugate with Pam3CysSK4, attachment site not given here)” was run?
Its IFNγ release is “significantly lower”.

— patent US11007256B2, “Synthetic lipopeptide vaccines and immunotherapeutics” (The University of Toledo, priority 2016, dated 2021)
